Consider three compounds from paper PMC3707518 (Journal of nuclear medicine : official publication, Society …, 2010).

Values joined by “and” are separate entries in the source; they are usually repeats but may differ in a detail not shown here. Equal values may be shown once.

In one data set the test system is β2*-nAChR. The following applies: cited from earlier work.
In data set [1] the target is T1, β2*-nAChRs (Homo sapiens, UniProt P17787). Nature of the data set: ^123I-5-IA SPECT regional uptake. The data set is classed as in vivo.
Data set [2] deals with β2*-nAChRs. Particulars: nonhuman primates, cited from earlier work.
For data set [3] the following is noted: cited from earlier work.
Data set [4] addresses T1, β2*-nAChRs. Particulars: 3 h after smoking challenge; representative subject, Fig. 4.
The target of data set [5] is T1, β2*-nAChRs. Particulars: 3.1 h; cited from earlier work.
For data set [6] the following is noted: dependent smokers; cited from earlier work.
Data set [7] can be described thus: Plasma nicotine and cotinine levels, smoking challenge and abstinence check.

T1 sequence (P17787 26-502): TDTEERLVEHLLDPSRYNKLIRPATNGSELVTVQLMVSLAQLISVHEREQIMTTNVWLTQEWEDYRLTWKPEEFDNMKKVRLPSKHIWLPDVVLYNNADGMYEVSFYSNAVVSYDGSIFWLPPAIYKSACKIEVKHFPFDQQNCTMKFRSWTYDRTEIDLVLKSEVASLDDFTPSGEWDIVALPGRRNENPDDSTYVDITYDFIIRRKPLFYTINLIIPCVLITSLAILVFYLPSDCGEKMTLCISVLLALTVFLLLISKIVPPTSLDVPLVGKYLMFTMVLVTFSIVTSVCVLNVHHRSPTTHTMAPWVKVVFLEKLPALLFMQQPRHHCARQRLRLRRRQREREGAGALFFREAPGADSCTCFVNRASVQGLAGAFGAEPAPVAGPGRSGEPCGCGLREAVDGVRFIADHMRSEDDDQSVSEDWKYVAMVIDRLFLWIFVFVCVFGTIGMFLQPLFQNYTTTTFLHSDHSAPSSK

Consider `c1cncc(OC[C@@H]2CCN2)c1` [A-85380, 3-[2(S)-2-azetidinylmethoxy]pyridine], for which, in the data set with β2*-nAChR, the Affinity entry was “high affinity” and the “Selectivity for the β2*-nAChR” value is “high selectivity”.
Regarding `[123I]c1cncc(OC[C@@H]2CCN2)c1` [^123I-5-IA, 5-^123I-iodo-85380], the “Nondisplaceable uptake VND/fp” value on β2*-nAChRs [1] (average and range across subjects, brain, after smoking to satiety) is 19.4 ± 5.8 mL·cm^−3 and 15–28 mL·cm^−3. On β2*-nAChRs [1] (not corrected for plasma free fraction), the “Average VND without correcting for fp” value came to 7.03 ± 1.92 kBq/cm^3. The “Nondisplaceable binding in the thalamus” value in the data set with β2*-nAChRs [2] (inferred from specific binding) is “about 30%”. Further, in the data set with β2*-nAChRs [2], the “Specific binding in the thalamus” value was “about 70%”. Moreover, the Safety entry in data set [3] was “safe and nontoxic”.
The compound `CN1CCC[C@H]1c1cccnc1` [nicotine] gave a Maximal occupancy at β2*-nAChRs [4] of 69.1%. Further, the “Nicotine in blood at the time of greatest occupancy” value on β2*-nAChRs [5] was “less than 4 ng/mL”. In addition, in data set [6], the “Time for nicotine from tobacco smoke to reach the brain after inhalation” value is no more than 30 s. The “Time of highest nicotine concentration” value in data set [7] (after initiation of tobacco smoking, representative subject, Fig. 2B) is 20 min. The “Blood nicotine area under curve (60 min)” value in data set [7] (after smoking to satiety, individual subjects 1-10 and mean ± SD) is 4,864.0 and 3,764.0 and 8,273.0 and 8,124.0 and 8,544.3 ± 7,068.8 and 3,470.0 and 7,153.0 and 7,840.0 and 27,700.0 and 4,488.0 and 9,767.0.
